The results in this text go back to US8236827B2, “Compounds” (Spear Therapeutics Limited, priority 2009, dated 2012).

One data set has as its system wild-type CHO cells. The experiment in a line: Cytotoxicity (MTS) in wild-type CHO cells. It is filed as cell-based, Chinese Hamster. On the procedure:
CHO cells: Chinese Hamster Ovary (CHO) DUKXB11 cells were grown under standard cell culture conditions in α-MEM supplemented with 10% FCS, 1 unit/ml each of hypoxanthine and thymidine, and penicillin (100 IU/ml) and streptomycin (100 μg/ml) according to literature methods (Ding S, et al., Arch. Biochem. Biophys., 348: 403-410, 1997, the contents of which are incorporated herein by reference). Cells were grown at 37° C. in a humidified atmosphere plus 5% CO2.
(§1) A single cell suspension of CHO, CHO/CYP1A1 or CHO/CYP1B1 in 100 μl of the required cell culture medium was seeded onto 96-well plates at a cell density of 1500 cells per well and placed in an incubator for 24 h at 37° C. The stock solution of test compound in DMSO was then added to give a concentration range of 100, 30, 10, 3, 1, 0.3, 0.1, 0.03, 0.01, 0.003, 0.001, 0 μM. The final concentration of DMSO 0.2% was found not to affect the growth characteristics of the various CHO cell lines. The cells were incubated with the test compound for 96 h after which all the medium was aspirated and replaced with 100 μl of fresh medium to compensate for the loss of medium due to evaporation. The cells were incubated with 20 μl of the MTS assay reagent for 1.5 h and the absorbance per well at 510 nm measured using a plate reader. The mean absorbance and standard deviation for each test compound concentration was calculated versus a series of controls including (a) cells plus medium, (b) cell plus medium containing DMSO 0.2%, (c) medium alone, and (d) medium containing DMSO 0.2% and a range of test compound concentrations from 0 to 100 μM.
(§2) The MTS assay is a homogeneous, colorimetric method for determining the number of viable cells in proliferation, cytotoxicity or chemosensitivity assays (Cali J J, et al., “Luminescence-Based Methods and Probes for Measuring Cytochrome P450 Activity”, pp. 1-29. Promega Corporation, United States, 2004, the contents of which are incorporated herein by reference). The assay is composed of solutions of tetrazolium compound [3-(4,5-dimethylthiazol-2-yl)-5-(3-carboxymethoxyphenyl)-2-(4-sulfophenyl)-2H-tetrazolium, inner salt; MTS] and an electron coupling reagent (phenazine methosulfate) PMS. MTS is bioreduced by cells into a formazan product that is soluble in tissue culture medium. The absorbance of the formazan product at 510 nm can be directly measured from 96-well assay plates. The quantity of formazan product as measured by the amount of absorbance at 490 or 510 nm is directly proportional to the number of living cells in culture.

In the next data set the target is CYP3A5 (Homo sapiens, UniProt P20815). The experiment in a line: CYP phenotyping, metabolic stability. It is filed as in vitro ADME. Conditions: CYP3A5 (10 pm/mL); 1 μM; after 60 minutes. On the procedure: (§3) As mentioned above, a feature of the compounds of the invention is their metabolism by CYP1B1 which is expressed at high frequency in a wide range of human cancers of different histogenetic types, but not in normal tissues. […] Compounds V and II were exposed to a panel of six CYPs (see Table 5 below).
(§4) CYP metabolism studies were performed by Cerep Laboratories (Redmond, Wash., USA). Compounds were screened in duplicate at 1 μM in the presence of CYP enzyme, NADP (1.3 mM), D-Glucose-6-phosphate (3.3 mM) and Glucose-6-phosphate dehydrogenase. Following incubation at 0 and 60 minutes, parent compound levels were determined using standard HPLC/MS/MS procedures. The results are expressed as percent parent compound remaining after 60 minutes.

The target in a further data set is T1, CYP1A2 (Homo sapiens, UniProt P05177).
T1 sequence (P05177 1-516): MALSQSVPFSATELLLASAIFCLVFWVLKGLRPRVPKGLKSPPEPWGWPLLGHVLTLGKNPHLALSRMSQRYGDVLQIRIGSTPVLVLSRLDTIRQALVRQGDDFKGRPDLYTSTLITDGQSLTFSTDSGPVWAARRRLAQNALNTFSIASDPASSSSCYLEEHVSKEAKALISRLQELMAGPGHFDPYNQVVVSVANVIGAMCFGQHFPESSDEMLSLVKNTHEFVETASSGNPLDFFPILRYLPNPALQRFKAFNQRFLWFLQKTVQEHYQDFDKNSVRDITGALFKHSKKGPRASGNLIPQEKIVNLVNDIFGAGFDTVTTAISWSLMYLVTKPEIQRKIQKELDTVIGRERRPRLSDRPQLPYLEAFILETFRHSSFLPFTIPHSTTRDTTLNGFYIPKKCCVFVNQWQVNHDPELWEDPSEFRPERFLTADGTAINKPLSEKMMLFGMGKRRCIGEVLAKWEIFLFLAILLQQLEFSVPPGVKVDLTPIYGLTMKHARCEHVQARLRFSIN
The experiment in a line: CYP phenotyping, metabolic stability. It is filed as in vitro ADME. Conditions: CYP1A2 (40 pm/mL); 1 μM; after 60 minutes. The protocol:
as §3, §4

For a further data set, the system named is CHO/CYP1B1 cells. The experiment in a line: Cytotoxicity (MTS) in CHO/CYP1B1 cells. The class given is cell-based, Chinese Hamster. On the procedure:
(§5) CHO/CYP1A1 and CHO/CYP1B1 cells: CHO cells containing recombinant CYP1A1 and recombinant CYP1B1 co-expressing P450 reductase, namely (CHO/CYP1A1) and (CHO/CYP1B1) respectively, were cultured using the standard culture medium for CHO cells supplemented with 0.4 mg/ml G418 disulfate salt and 0.3 μM methotrexate (Sigma/Aldrich Co., Gillingham, Dorset, UK) according to methods described in the literature (ibid.) Cells were grown at 37° C. in a humidified atmosphere plus 5% CO2.
as §1, §2

A short description of data set [1]: Cytotoxicity (MTS) in CHO/CYP1B1 cells. The class given is cell-based, Chinese Hamster. Conditions: Chinese hamster; text of b216; read-out: IC50, proliferation of CHO/CYP1B1 cells. The protocol:
as §5, §1, §2

The next data set concerns the target CYP3A4 (Homo sapiens, UniProt P08684). The experiment in a line: CYP phenotyping, metabolic stability. It is filed as in vitro ADME. Conditions: CYP3A4 (10 pm/mL); 1 μM; after 60 minutes. The protocol: (§6) Compounds V and II were exposed to a panel of six CYPs (see Table 5 below).
as §4

The next data set addresses CYP2C9 (Homo sapiens, UniProt P11712). The experiment in a line: CYP phenotyping, metabolic stability. The class given is in vitro ADME. Conditions: CYP2C9 (10 pm/mL); 1 μM; after 60 minutes. On the procedure:
as §6, §4

The target in a further data set is CYP2C19 (Homo sapiens, UniProt P33261). The experiment in a line: CYP phenotyping, metabolic stability. It is filed as in vitro ADME. Conditions: CYP2C19 (10 pm/mL); 1 μM; after 60 minutes. On the procedure:
as §6, §4

The target of another data set is CYP2D6 (Homo sapiens, UniProt P10635). The experiment in a line: CYP phenotyping, metabolic stability. Conditions: CYP2D6 (10 pm/mL); 1 μM; after 60 minutes. It is filed as in vitro ADME. The protocol: as §6, §4
Data set [2] is described as follows: Cytotoxicity (MTS) in CHO/CYP1A1 cells. The class given is cell-based, Chinese Hamster. Conditions: Chinese hamster; 96 h, MTS. On the procedure: as §5, §1, §2
For a further data set, the system named is CHO/CYP1A1 cells. The experiment in a line: Cytotoxicity (MTS) in CHO/CYP1A1 cells. It is filed as cell-based, Chinese Hamster. The protocol: as §5, §1, §2

Sequence of CYP2C9 (P11712 whole entry, species assumed): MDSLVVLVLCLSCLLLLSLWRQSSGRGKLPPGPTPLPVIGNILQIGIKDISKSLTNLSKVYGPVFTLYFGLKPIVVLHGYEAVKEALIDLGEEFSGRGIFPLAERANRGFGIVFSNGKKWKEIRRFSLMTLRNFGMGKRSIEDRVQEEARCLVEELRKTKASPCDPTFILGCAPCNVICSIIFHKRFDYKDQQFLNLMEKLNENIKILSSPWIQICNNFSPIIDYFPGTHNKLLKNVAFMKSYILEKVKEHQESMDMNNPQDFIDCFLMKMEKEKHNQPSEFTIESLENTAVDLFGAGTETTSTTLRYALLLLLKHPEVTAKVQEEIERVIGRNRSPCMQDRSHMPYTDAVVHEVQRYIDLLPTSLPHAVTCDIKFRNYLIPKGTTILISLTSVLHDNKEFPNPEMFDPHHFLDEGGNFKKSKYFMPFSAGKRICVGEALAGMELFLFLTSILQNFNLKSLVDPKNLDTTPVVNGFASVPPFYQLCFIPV
Sequence of CYP3A4 (P08684 whole entry, species assumed): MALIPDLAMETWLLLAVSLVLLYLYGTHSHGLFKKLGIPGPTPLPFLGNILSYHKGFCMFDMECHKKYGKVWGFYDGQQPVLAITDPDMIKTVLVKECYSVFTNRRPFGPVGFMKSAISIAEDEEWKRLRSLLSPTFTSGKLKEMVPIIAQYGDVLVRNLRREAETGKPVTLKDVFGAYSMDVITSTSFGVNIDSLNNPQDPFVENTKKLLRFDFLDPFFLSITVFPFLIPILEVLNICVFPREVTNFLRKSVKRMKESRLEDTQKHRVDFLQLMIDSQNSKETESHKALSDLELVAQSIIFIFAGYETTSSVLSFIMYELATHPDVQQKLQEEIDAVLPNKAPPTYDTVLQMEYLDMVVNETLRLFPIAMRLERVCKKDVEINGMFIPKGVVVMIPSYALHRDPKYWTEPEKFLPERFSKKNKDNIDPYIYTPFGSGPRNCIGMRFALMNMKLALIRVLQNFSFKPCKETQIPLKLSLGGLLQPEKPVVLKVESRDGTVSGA
Sequence of CYP2D6 (P10635 whole entry, species assumed): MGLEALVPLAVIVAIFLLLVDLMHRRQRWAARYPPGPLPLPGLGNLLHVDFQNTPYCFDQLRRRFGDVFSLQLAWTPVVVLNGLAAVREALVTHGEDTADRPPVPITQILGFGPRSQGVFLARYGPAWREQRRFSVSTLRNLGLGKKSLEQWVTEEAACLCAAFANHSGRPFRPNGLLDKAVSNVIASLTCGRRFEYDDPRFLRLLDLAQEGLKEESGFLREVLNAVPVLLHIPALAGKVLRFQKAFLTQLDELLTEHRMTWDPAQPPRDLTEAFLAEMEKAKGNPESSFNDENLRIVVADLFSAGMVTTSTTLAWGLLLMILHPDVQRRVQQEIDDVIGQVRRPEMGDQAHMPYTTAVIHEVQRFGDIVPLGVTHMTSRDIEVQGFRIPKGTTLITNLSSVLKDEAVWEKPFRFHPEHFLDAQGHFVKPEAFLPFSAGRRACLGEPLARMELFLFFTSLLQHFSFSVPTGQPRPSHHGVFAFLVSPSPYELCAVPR
Sequence of CYP3A5 (P20815 whole entry, species assumed): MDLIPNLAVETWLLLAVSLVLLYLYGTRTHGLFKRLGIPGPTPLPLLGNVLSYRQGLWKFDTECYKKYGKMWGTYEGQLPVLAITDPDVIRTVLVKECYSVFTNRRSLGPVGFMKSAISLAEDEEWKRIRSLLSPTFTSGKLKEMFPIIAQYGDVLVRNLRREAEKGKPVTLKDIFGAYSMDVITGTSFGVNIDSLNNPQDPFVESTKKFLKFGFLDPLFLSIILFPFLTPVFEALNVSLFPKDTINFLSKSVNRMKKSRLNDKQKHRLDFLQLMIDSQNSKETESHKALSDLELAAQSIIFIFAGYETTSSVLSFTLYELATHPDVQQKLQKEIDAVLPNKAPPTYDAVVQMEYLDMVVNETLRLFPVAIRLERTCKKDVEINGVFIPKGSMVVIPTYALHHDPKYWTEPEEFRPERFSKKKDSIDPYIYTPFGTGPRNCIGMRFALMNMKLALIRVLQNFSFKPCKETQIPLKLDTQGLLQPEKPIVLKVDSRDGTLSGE
Sequence of CYP2C19 (P33261 whole entry, species assumed): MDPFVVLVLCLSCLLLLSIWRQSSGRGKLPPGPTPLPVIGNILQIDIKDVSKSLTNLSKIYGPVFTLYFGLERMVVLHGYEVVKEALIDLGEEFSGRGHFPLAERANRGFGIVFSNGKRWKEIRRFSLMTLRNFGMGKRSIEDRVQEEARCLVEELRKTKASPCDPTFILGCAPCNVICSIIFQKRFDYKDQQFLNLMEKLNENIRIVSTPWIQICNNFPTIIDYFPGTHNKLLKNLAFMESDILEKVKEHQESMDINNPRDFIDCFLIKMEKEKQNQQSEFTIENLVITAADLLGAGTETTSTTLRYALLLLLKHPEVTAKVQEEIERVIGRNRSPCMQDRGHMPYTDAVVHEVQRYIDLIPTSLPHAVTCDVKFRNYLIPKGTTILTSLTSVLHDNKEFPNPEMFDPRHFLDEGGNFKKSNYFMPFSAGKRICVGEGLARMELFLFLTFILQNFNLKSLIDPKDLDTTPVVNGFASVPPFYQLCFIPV

As for `COc1ccc(-c2cc(-c3ccc4c(c3)OCO4)cc(=O)[nH]2)cc1OC` [Compound V], the “toxicity to wild-type CHO cells (in words)” value in the data set on wild-type CHO cells is “non toxic”. Besides, in the data set on wild-type CHO cells (Cricetulus griseus, CHO, 96 h, MTS), the IC50 is > 100 µM. The “Mean Parent Remaining (%)” value at CYP3A5 was 87%; on CYP1A2, 71%; at CYP3A4 it was 93%; at CYP2C9, 109%; at CYP2C19, 111%; on CYP2D6, 100%. In the data set with CHO/CYP1B1 cells, the “activity against CHO/CYP1B1 cells (in words)” value is “strongly inhibit proliferation”. Moreover, the values for the IC50 at 96 h in data set [1] and in data set [2] were 0.08 µM and > 100 µM, respectively. In addition, the “toxicity / activity in CYP1A1 expressing CHO cells (in words)” value in the data set on CHO/CYP1A1 cells is recorded as “non toxic”.
